Experimental data as given in US10351575B2, “Bicyclic urea, thiourea, guanidine and cyanoguanidine compounds useful for the treatment of pain” (Array BioPharma Inc., priority 2012, dated 2019).

Tests used:
Test in all cases: KinaseProfiler off-target kinase profiling
Format in all cases: biochemical
Conditions in all cases: 10 μM, ATP near Km
Abl-P = Abl-P (Homo sapiens (Human), UniProt P00519)
Procedure, shortened: (§1)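 Percent of control (POC) is reported as the mean of two replicate wells. Each kinase reaction used ATP close to its own Km, and compound was tested at a single concentration of 10 μM.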

Abl2 = Abl2 (Homo sapiens (Human), UniProt P42684)
Chain of Abl2 (P42684 whole entry): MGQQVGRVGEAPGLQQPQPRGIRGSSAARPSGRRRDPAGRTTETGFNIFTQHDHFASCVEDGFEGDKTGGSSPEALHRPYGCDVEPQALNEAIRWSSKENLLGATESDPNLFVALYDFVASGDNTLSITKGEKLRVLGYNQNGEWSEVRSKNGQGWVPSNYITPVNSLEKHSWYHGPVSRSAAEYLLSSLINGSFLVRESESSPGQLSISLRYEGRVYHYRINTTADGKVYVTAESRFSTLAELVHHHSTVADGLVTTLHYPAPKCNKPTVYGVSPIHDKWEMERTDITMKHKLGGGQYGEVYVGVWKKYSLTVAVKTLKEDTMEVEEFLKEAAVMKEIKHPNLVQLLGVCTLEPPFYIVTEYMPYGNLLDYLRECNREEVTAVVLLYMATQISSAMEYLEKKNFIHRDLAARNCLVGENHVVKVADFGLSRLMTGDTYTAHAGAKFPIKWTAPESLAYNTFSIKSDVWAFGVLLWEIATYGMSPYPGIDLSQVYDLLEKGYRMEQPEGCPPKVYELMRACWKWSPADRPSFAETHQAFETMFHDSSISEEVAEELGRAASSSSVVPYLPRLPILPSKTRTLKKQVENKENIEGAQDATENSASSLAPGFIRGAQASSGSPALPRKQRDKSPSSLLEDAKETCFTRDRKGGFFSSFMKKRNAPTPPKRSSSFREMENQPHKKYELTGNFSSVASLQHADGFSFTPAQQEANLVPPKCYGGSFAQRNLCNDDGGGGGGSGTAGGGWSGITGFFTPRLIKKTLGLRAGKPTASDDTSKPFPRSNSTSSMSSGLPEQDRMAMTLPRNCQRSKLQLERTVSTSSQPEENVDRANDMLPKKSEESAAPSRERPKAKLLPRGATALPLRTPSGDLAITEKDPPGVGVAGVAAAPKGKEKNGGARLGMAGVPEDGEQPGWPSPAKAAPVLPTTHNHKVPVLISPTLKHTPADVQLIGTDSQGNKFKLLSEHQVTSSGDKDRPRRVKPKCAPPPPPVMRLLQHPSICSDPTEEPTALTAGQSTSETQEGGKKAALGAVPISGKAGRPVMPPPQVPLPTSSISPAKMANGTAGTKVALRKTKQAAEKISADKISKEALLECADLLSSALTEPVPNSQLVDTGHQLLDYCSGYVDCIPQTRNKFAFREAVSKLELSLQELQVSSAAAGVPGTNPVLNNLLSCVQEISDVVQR
Procedure, shortened: as §1

BTK = BTK (Homo sapiens (Human), UniProt Q06187)
Procedure, shortened: as §1

CAMK2d = CAMK2d (Homo sapiens (Human), UniProt Q13557)
Procedure, shortened: as §1

CDK6/cyclinD3 = CDK6/cyclinD3 (Homo sapiens (Human), UniProt Q00534)
Procedure, shortened: as §1

CDK7/cyclinH/MAT1 = CDK7/cyclinH/MAT1 (Homo sapiens (Human), UniProt P50613)
Procedure, shortened: as §1

DCAMKL2 = DCAMKL2 (Homo sapiens (Human), UniProt Q8N568)
Procedure, shortened: as §1

DRAK1 = DRAK1 (Homo sapiens (Human), UniProt Q9UEE5)
Procedure, shortened: as §1

ERK1 = ERK1 (Homo sapiens (Human), UniProt P27361)
Procedure, shortened: as §1

EphA3 = EphA3 (Homo sapiens (Human), UniProt P29320)
Procedure, shortened: as §1

EphA8 = EphA8 (Homo sapiens (Human), UniProt P29322)
Procedure, shortened: as §1

Fer = Fer (Homo sapiens (Human), UniProt P16591)
Procedure, shortened: as §1

Haspin = Haspin (Homo sapiens (Human), UniProt Q8TF76)
Procedure, shortened: as §1

IGF-1R = IGF-1R (Homo sapiens (Human), UniProt P08069)
Procedure, shortened: as §1

IR = IR (Homo sapiens (Human), UniProt P06213)
Procedure, shortened: as §1

JNK3 = JNK3 (Homo sapiens (Human), UniProt P53779)
Procedure, shortened: as §1

LKB1 = LKB1 (Homo sapiens (Human), UniProt Q15831)
Procedure, shortened: as §1

MAPKAP-K5 = MAPKAP-K5 (Homo sapiens (Human), UniProt Q8IW41)
Procedure, shortened: as §1

MARK1 = MARK1 (Homo sapiens (Human), UniProt Q9P0L2)
Procedure, shortened: as §1

MKK7beta = MKK7beta (Homo sapiens (Human), UniProt O14733)
Procedure, shortened: as §1

MRCKbeta = MRCKbeta (Homo sapiens (Human), UniProt Q9Y5S2)
Procedure, shortened: as §1

MST3 = MST3 (Homo sapiens (Human), UniProt Q9Y6E0)
Procedure, shortened: as §1

MYLK = MYLK (Homo sapiens (Human), UniProt Q15746)
Procedure, shortened: as §1

Mer = Mer (Homo sapiens (Human), UniProt Q12866)
Chain of Mer (Q12866 21-999): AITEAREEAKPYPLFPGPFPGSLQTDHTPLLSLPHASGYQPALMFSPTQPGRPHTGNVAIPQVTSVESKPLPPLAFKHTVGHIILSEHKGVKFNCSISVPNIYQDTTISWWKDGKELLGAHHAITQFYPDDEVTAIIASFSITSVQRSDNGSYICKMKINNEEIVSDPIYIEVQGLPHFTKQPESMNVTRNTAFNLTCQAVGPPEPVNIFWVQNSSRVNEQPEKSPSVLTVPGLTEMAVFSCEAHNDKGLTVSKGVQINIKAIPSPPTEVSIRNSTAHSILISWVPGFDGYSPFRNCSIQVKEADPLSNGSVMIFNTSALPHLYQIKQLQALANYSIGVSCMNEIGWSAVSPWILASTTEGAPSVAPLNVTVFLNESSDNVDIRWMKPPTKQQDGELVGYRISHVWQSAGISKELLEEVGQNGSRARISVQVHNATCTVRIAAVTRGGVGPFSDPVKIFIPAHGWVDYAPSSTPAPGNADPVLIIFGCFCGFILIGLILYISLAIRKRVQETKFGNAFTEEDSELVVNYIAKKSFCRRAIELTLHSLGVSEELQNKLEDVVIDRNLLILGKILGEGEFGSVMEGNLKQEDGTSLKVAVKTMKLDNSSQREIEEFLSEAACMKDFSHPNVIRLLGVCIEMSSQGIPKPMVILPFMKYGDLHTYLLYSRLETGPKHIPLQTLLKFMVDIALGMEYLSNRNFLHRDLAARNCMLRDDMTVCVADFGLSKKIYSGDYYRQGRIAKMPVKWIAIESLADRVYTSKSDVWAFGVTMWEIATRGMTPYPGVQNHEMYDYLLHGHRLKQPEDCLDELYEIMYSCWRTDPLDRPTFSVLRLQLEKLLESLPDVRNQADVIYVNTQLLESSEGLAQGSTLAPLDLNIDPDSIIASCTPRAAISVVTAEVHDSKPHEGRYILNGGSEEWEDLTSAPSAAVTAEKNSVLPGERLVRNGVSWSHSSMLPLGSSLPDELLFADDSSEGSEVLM
Procedure, shortened: as §1

Met = Met (Homo sapiens (Human), UniProt P08581)
Chain of Met (P08581 25-1390): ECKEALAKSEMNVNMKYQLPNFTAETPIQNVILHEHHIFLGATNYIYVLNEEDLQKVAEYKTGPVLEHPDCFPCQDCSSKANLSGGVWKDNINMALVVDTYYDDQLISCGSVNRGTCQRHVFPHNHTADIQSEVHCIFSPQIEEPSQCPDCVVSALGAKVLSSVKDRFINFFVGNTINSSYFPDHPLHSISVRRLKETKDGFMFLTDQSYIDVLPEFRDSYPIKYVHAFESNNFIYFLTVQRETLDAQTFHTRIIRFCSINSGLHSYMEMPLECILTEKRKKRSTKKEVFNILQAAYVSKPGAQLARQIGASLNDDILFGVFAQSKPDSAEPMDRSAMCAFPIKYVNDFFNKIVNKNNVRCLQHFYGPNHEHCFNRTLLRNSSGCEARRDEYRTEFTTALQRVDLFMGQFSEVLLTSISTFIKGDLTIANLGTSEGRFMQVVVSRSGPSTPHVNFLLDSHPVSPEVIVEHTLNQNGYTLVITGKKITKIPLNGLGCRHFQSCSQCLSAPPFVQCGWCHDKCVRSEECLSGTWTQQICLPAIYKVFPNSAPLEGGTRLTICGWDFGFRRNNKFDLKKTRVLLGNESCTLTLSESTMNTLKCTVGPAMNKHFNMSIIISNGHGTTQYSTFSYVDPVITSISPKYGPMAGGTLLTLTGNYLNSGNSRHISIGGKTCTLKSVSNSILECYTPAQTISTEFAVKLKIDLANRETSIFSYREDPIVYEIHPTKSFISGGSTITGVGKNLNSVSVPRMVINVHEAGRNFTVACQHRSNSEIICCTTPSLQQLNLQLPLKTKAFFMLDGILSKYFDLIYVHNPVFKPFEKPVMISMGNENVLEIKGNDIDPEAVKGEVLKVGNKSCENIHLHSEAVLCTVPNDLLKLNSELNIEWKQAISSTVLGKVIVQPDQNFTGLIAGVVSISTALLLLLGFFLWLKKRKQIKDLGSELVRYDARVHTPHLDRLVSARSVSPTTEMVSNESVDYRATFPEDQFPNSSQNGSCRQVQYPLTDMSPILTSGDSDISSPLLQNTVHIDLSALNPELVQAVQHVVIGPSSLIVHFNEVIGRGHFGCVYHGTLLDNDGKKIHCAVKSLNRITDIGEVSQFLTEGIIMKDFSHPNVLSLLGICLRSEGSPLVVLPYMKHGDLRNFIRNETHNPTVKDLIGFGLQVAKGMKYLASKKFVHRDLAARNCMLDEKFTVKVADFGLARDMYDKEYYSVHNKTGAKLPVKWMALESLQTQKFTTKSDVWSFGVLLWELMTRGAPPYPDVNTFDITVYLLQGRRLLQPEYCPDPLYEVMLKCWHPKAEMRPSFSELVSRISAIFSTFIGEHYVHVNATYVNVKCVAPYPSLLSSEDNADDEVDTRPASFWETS
Procedure, shortened: as §1

NEK2 = NEK2 (Homo sapiens (Human), UniProt P51955)
Chain of NEK2 (P51955 whole entry): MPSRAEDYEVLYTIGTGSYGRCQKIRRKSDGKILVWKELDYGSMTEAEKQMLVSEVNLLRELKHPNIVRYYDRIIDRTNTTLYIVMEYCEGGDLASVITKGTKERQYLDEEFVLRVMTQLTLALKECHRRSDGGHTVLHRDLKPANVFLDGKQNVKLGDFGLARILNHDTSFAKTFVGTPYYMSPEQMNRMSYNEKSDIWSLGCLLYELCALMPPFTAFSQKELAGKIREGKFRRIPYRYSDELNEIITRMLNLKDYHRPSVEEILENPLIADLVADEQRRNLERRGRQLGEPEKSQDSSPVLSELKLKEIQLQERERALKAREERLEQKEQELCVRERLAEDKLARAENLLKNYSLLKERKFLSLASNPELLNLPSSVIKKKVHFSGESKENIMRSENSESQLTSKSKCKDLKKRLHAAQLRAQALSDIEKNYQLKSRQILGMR
Procedure, shortened: as §1

PAK2 = PAK2 (Homo sapiens (Human), UniProt Q13177)
Procedure, shortened: as §1

PDGFRalpha = PDGFRalpha (Homo sapiens (Human), UniProt P16234)
Procedure, shortened: as §1

PDGFRbeta = PDGFRbeta (Homo sapiens (Human), UniProt P09619)
Chain of PDGFRbeta (P09619 33-1106): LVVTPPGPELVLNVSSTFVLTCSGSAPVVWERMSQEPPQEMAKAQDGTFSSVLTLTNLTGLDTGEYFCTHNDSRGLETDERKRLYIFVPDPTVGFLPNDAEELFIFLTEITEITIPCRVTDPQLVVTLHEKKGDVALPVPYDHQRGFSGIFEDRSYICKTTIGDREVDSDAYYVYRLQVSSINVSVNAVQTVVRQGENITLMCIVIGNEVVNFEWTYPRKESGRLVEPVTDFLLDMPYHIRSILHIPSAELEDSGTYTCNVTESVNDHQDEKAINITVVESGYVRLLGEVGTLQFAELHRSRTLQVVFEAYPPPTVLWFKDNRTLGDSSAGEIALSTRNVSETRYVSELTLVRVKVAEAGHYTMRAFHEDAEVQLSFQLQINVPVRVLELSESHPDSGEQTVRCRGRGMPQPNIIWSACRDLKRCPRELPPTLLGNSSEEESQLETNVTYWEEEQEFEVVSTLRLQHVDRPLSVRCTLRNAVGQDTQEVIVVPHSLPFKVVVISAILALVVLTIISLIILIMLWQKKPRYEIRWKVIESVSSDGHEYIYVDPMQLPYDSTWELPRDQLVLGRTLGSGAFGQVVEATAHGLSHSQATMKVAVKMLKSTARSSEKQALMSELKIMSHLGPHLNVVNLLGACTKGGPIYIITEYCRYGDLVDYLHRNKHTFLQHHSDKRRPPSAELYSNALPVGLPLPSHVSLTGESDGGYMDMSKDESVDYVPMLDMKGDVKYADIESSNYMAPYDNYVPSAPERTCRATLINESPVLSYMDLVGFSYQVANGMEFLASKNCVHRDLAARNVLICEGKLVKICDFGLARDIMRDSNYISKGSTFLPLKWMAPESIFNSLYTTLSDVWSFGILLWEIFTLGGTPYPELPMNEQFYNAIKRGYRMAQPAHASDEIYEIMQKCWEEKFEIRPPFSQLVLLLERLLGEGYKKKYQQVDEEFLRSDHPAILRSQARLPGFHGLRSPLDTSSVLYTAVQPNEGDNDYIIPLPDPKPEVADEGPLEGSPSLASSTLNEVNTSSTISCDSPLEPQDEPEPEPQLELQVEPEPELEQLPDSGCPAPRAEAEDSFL
Procedure, shortened: as §1

PKAC-alpha = PKAC-alpha (Homo sapiens (Human), UniProt P17612)
Procedure, shortened: as §1

PKD2 = PKD2 (Homo sapiens (Human), UniProt Q9BZL6)
Procedure, shortened: as §1

PRKG1alpha = PRKG1alpha (Homo sapiens (Human), UniProt Q13976)
Procedure, shortened: as §1

Plk1 = Plk1 (Homo sapiens (Human), UniProt P53350)
Procedure, shortened: as §1

Rsk3 = Rsk3 (Homo sapiens (Human), UniProt Q15349)
Procedure, shortened: as §1

SGK3 = SGK3 (Homo sapiens (Human), UniProt Q96BR1)
Procedure, shortened: as §1

SIK = SIK (Homo sapiens (Human), UniProt P57059)
Procedure, shortened: as §1

Syk = Syk (Homo sapiens (Human), UniProt P43405)
Procedure, shortened: as §1

ULK3 = ULK3 (Homo sapiens (Human), UniProt Q6PHR2)
Procedure, shortened: as §1

Yes = Yes (Homo sapiens (Human), UniProt P07947)
Procedure, shortened: as §1

Avg. POC (Abl-P) [POC] | Avg. POC (Abl2) [POC] | Avg. POC (BTK) [POC] | Avg. POC (CAMK2d) [POC] | Avg. POC (CDK6/cyclinD3) [POC] | Avg. POC (CDK7/cyclinH/MAT1) [POC] | Avg. POC (DCAMKL2) [POC] | Avg. POC (DRAK1) [POC] | Avg. POC (ERK1) [POC] | Avg. POC (EphA3) [POC] | Avg. POC (EphA8) [POC] | Avg. POC (Fer) [POC] | Avg. POC (Haspin) [POC] | Avg. POC (IGF-1R) [POC] | Avg. POC (IR) [POC] | Avg. POC (JNK3) [POC] | Avg. POC (LKB1) [POC] | Avg. POC (MAPKAP-K5) [POC] | Avg. POC (MARK1) [POC] | Avg. POC (MKK7beta) [POC] | Compound | further results
146.5 | 112.5 | 111.5 | 119 | 100 | 111 | 157.5 | 108.5 | 120.5 | 123.5 | 128.5 | 110.5 | 92.5 | 18 | 44 | 117.5 | 103.5 | 113.5 | 103 | 129.5 | Cc1c(-c2cnn(C)c2)nn(-c2ccccc2)c1NC(=O)N[C@H]1CCCc2ccccc21 [Example 2, (S)-1-(1′,4-dimethyl-1-phenyl-1H,1′H-3,4′-bipyrazol-5-yl)-3-(1,2,3,4-tetrahydronaphthalen-1-yl)urea] | Avg. POC (MRCKbeta): 129.5 POC; Avg. POC (MST3): 120 POC; Avg. POC (MYLK): 100 POC; Avg. POC (Mer): 109.5 POC; Avg. POC (Met): 148.5 POC; Avg. POC (NEK2): 104 POC; Avg. POC (PAK2): 104 POC; Avg. POC (PDGFRalpha): 123 POC; Avg. POC (PDGFRbeta): 149 POC; Avg. POC (PKAC-alpha): 138.5 POC; Avg. POC (PKD2): 102 POC; Avg. POC (PRKG1alpha): 127.5 POC; Avg. POC (Plk1): 95 POC; Avg. POC (Rsk3): 106 POC; Avg. POC (SGK3): 137.5 POC; Avg. POC (SIK): 121.5 POC; Avg. POC (Syk): 115 POC; Avg. POC (ULK3): 105 POC; Avg. POC (Yes): 132.5 POC
135.5 | 118 | 127 | 110.5 | 103 | 101 | 169 | 114 | 105 | 114.5 | 122.5 | 100.5 | 97 | 80 | 92 | 107.5 | 91 | 96 | 104 | 122.5 | Cc1c(-c2cnn(C)c2)nn(-c2ccccc2)c1NC(=O)NC1CCOc2cc(F)ccc21 (stereo not drawn) [Example 12, 1-(1′,4-dimethyl-1-phenyl-1H,1′H-[3,4′-bipyrazol]-5-yl)-3-(7-fluorochroman-4-yl)urea] | Avg. POC (MRCKbeta): 103.5 POC; Avg. POC (MST3): 131.5 POC; Avg. POC (MYLK): 99 POC; Avg. POC (Mer): 98 POC; Avg. POC (Met): 109 POC; Avg. POC (NEK2): 91.5 POC; Avg. POC (PAK2): 97 POC; Avg. POC (PDGFRalpha): 104.5 POC; Avg. POC (PDGFRbeta): 125.5 POC; Avg. POC (PKAC-alpha): 120.5 POC; Avg. POC (PKD2): 94 POC; Avg. POC (PRKG1alpha): 89.5 POC; Avg. POC (Plk1): 98.5 POC; Avg. POC (Rsk3): 90 POC; Avg. POC (SGK3): 143.5 POC; Avg. POC (SIK): 133.5 POC; Avg. POC (Syk): 108.5 POC; Avg. POC (ULK3): 89.5 POC; Avg. POC (Yes): 119.5 POC
131 | 105 | 139 | 99.5 | 104.5 | 113.5 | 135 | 125 | 109.5 | 128 | 118.5 | 98 | 92 | 60.5 | 82.5 | 116 | 95 | 101.5 | 98.5 | 144.5 | Cc1c(-c2ccc(=O)n(C)c2)nn(-c2ccccc2)c1NC(=O)NC1CN(CC(F)(F)F)Cc2ccccc21 (stereo not drawn) [Example 26, 1-(4-methyl-3-(1-methyl-6-oxo-1,6-dihydropyridin-3-yl)-1-phenyl-1H-pyrazol-5-yl)-3-(2-(2,2,2-trifluoroethyl)-1,2,3,4-tetrahydroisoquinolin-4-yl)urea] | Avg. POC (MRCKbeta): 110 POC; Avg. POC (MST3): 108.5 POC; Avg. POC (MYLK): 101 POC; Avg. POC (Mer): 98 POC; Avg. POC (Met): 81 POC; Avg. POC (NEK2): 100.5 POC; Avg. POC (PAK2): 99.5 POC; Avg. POC (PDGFRalpha): 104.5 POC; Avg. POC (PDGFRbeta): 122.5 POC; Avg. POC (PKAC-alpha): 116 POC; Avg. POC (PKD2): 102 POC; Avg. POC (PRKG1alpha): 98 POC; Avg. POC (Plk1): 108 POC; Avg. POC (Rsk3): 76.5 POC; Avg. POC (SGK3): 104 POC; Avg. POC (SIK): 121.5 POC; Avg. POC (Syk): 93.5 POC; Avg. POC (ULK3): 92.5 POC; Avg. POC (Yes): 117.5 POC
124.5 | 121.5 | 119 | 108.5 | 108 | 122.5 | 146 | 105.5 | 107 | 122 | 109 | 85 | 94 | 84.5 | 109 | 104 | 100 | 108 | 98.5 | 138.5 | COCc1ccc2c(c1)C(NC(=O)Nc1c(C)c(-c3cnn(C)c3)nn1-c1ccccc1)COC2 (stereo not drawn) [Example 32, 1-(1′,4-dimethyl-1-phenyl-1H,1′H-[3,4′-bipyrazol]-5-yl)-3-(6-(methoxymethyl)isochroman-4-yl)urea] | Avg. POC (MRCKbeta): 103 POC; Avg. POC (MST3): 130.5 POC; Avg. POC (MYLK): 97.5 POC; Avg. POC (Mer): 104 POC; Avg. POC (Met): 118.5 POC; Avg. POC (NEK2): 108 POC; Avg. POC (PAK2): 108.5 POC; Avg. POC (PDGFRalpha): 112.5 POC; Avg. POC (PDGFRbeta): 131.5 POC; Avg. POC (PKAC-alpha): 90 POC; Avg. POC (PKD2): 110.5 POC; Avg. POC (PRKG1alpha): 84 POC; Avg. POC (Plk1): 108 POC; Avg. POC (Rsk3): 92 POC; Avg. POC (SGK3): 134 POC; Avg. POC (SIK): 97 POC; Avg. POC (Syk): 115 POC; Avg. POC (ULK3): 92 POC; Avg. POC (Yes): 114.5 POC
